“Also recorded” adds a separate entry of the source.
What was measured:
[1] = tested on: CFPAC-1 (human pancreatic cancer) cell line-derived xenograft; test: In vivo tumour inhibition by dual prodrug nanoparticles, CFPAC-1 xenograft; parameters: species or system NOD-SCID gamma mouse (NSG); details: twice a week for 4 weeks; NPs IV with 4.5 mg/Kg Gem (dual: + 1 mg/Kg CP) equivalent; Gemcitabine 100 mg/Kg IP
Method: In another study a dual drug chemotherapeutic prodrug nanoparticle was employed to treat a CFPAC-1 (human pancreatic cancer) cell line-derived xenograft in NOD-SCID gamma mouse (NSG) over 28 days. […] The control groups were injected with the commercially available free Gemcitabine at 100 mg/Kg and PBS (vehicle control). Gemcitabine group were administered by intraperitoneal (IP) injection due to high toxicity of IV injection. 24 mice were used in this study, treating 6 mice/group.

[2] = tested on: CFPAC-1 pancreatic cell line; test: Cell proliferation and cytotoxicity assay (MTS or crystal violet); type: cell-based, human; details: CFPAC-1, 72 hours; prodrug tested as nanoparticles
Method: (§1) Cell proliferation and cytotoxicity assays were performed in different cell lines by MTS (3-(4,5-dimethylthiazol-2-yl)-5-(3-carboxymethoxyphenyl)-2-(4-sulfophenyl)-2H-tetrazolium) assay. Cells were treated with free drug or prodrug nanoparticles, and in different concentrations in medium supplemented with 10% FBS and incubated for 72 hours.
The cytotoxicity of CP-prodrug nanoparticles made from sole CP-amphiphiles was evaluated in comparison to native CP in a CFPAC-1 pancreatic cell line.
(§2) The cell lines were exposed to media with varying concentrations of the treatments (100-0.2 μM) and incubated for 72 hours. Cell viability was determined using the MTS assay or crystal violate assay and was conducted in triplicate to derive the IC50 values.

[3] = tested on: CACO2 cell line; test: as above; type: cell-based; details: CACO2, 72 hours; prodrug tested as nanoparticles
Method: as §1, §2

[4] = tested on: MCF7 cell line; test: as above; type: cell-based; details: MCF7, 72 hours; prodrug tested as nanoparticles
Method: as §1, §2

[5] = Reduction kinetics of Pt (IV) prodrug nanoparticles with ascorbic acid (LC-MS); type: in vitro ADME; details: prodrug nanoparticles 0.1 mM, 37° C.
Method: The reducing agent was applied at concentrations corresponding to those found in the living cells' environment, e.g. 1 mM ascorbic acid or 2 mM glutathione (GSH).
Dispersed nanoparticles of Pt (IV) prodrug amphiphiles were mixed with GSH, ascorbic acid or their combination. The ratios of the reducing agents to platinum prodrugs were 10:1 or 50:1 for ascorbic acid and 20:1 for GSH. The reduction kinetics was analysed by LC-MS via monitoring the peaks related to each prodrug amphiphile. The prodrugs were detected by negative ions optimised for each platinum amphiphile. The reduction kinetics was plotted as the percentage of the area under the peak of Pt (IV)-prodrug compared to the peak before the addition of the reducing agent against the time of incubation. At each time point 10 μl of a sample withdrawn from the reaction solution was injected directly into a Phenomenex C8 150 mm×2 mm 5 μm Luna column (Phenomenex, Australia). A 100% Methanol solution was used as the mobile phase with a flow rate of 0.5 ml/min for 8 minutes. The sample after the column separation was eluted to the ESI source. […] The samples were well maintained at a temperature of 37° C. during the entire measurement by incubation in the temperature-controlled auto-sampler. Data was acquired and processed with Xcalibur Quan chromatography software.

[6] = Mesophase behaviour by polarized optical microscopy (POM); type: physicochemical; details: 25° C. and 37° C.
Method: Polarized Optical Microscopy (POM): Samples used for Polarized Optical Microscopy (POM) were prepared by placing a small amount of prodrug amphiphile on a microscope slide and covered with a cover slip. Water was placed on the edges of the cover slip and allowed to flow into the sample by capillary action. The microscope slide was placed in a Linkam PE94 hot stage (Linkam Scientific Instruments Ltd. Surrey, England) and heated at 3° C./min between room temperature and 50° C. […] Images were captured with a Nikon DS-Ri-1 camera. All images were taken at 100× magnification.
The formation of lyotropic mesophases is based on the interaction of the prodrug amphiphile with water. Polarized optical microscopy was used to study the liquid crystalline or crystalline structures of the prodrug amphiphiles. This method was used as a preliminary and qualitative investigation to observe the morphological changes of the amphiphile as well as to predict the structural changes of the mesophases which may form upon hydration with water. For each prodrug amphiphile, a small amount of the neat and dry sample was placed on a microscope slide and covered with a cover slip. Water was placed on the edges of the cover slip to allow to flow into the sample by capillary action. Images were captured at 25° C. before and after the addition of water and at 37° C. after exposure to water. 37° C. was selected due to its physiological relevance. […]

[7] = tested on: MIAPACA-2 (human pancreatic cancer) cell-derived xenograft; test: In vivo tumour inhibition, resistant MIAPACA-2 xenograft (tumour volume, body weight, kidney histopathology); parameters: species or system NOD-SCID mice; details: for histopathology of the kidney: 0.75 mg/Kg CP or equivalent, H & E sections
From the text: Subcutaneous xenografts were established by implanting 2-3×10^6 cells from cultures of CFPAC-1 or MIAPACA-2 human pancreatic cancer cell lines. Six-week-old male Nonbobese diabetic/severe combined immunodeficient (NOD/SCID) or nonobese diabetic/severe combined immunodeficient-gamma (NSG) mice were obtained from Animal Research Centre, Perth, Australia. These mice were acclimatised for one week in the Kearns Facility, Kolling Institute of Medical Research, the University of Sydney, following standard animal regulation and strict health controls allowing transfer between institutions. Animal care and housing was undertaken in accordance with institutional guidelines of Northern Sydney Local Health District (NSLHD) Animal Care & Ethics Committee (ACEC) (Protocol number 1011-015A).
Tumour growth was measured at least twice a week. When tumours were ˜40-100 mm3, the treatments were administered two times weekly by intraperitoneal injection (IP.) for control and gemcitabine alone groups, and intravenously (IV.) injection for nanoparticles groups for 4 weeks. At 30 days each experiment organs and tumours were harvested for analysis.
Tissue samples were fixed in 10% phosphate buffered formalin and embedded in paraffin. Formalin-fixed, paraffin embedded sections were cut 4-μm thick sections and stained with Mayer's hematoxylin and eosin (H & E). For immunohistochemistry, sections were incubated with the specific antibodies then using the Dako Envision+System-HRP labelled polymer detection kit (DaKo) according to manufacturers' protocol and counterstained with Mayer's hematoxylin and Scott's bluing solution. After mounting, sections were observed under a light microscope (ECLIPSE 80i; Nikon,
The evaluation of anticancer drugs in vivo is essential as it provides insight into the expected clinical outcomes of a drug. An in vivo evaluation of the anti-cancer efficacy of the CP-prodrug nanoparticles vs. CP was conducted on a resistant MIAPACA-2 (human pancreatic cancer) cell-derived xenograft in NOD-SCID mice. Five mice per group were used in the study and all treatments were administered via an IV injection twice a week for four weeks. The amount of CP administered in the free CP group was 0.75 mg/kg, where the nanoparticles made from CP-bis (suc-PEG3-Oleoyl) and stabilised with 30% PEG4K-oleoyl (FIG. 7b), contained 0.75 mg/kg of equivalent CP.

[8] = 0.75 mg/kg CP or equivalent, IV twice a week for four weeks

Row | Compound | tumour growth inhibition (in words) [1] | IC50 [2] [µM] | IC50 [3] [µM] | IC50 [4] [µM] | reduction rate at 5 mM versus 1 mM ascorbic acid [5] | POM observation on exposure to water [6] | histopathology of the kidney ([7]; listed as CP) | histopathology of the kidney ([7]; listed as CP drug) | average increase of body weight at the conclusion of the experiment [7, 8] [%] | tumour growth inhibition (in words) [7, 8]
1 | Nc1ccn([C@@H]2O[C@H](CO)[C@@H](O)C2(F)F)c(=O)n1 [Gemcitabine] | significantly reduced the tumour volume; also recorded: reduced the size of tumour significantly better than other groups | – | – | – | – | – | – | – | – | –
2 | cis,cis,trans-(PtC12 (succinoyl-triethyleneglycoyl-oleoyl)2) [CP-bis(suc-PEG3-oleoyl)] | – | 5.1 | 49 | 28.2 | slightly greater than 1 mM up to 4 h, however longer incubation time up to 7 h showed similar reduced prodrug at both concentrations | lamellar and emulsified bands (L2 or L3) mesophases | – | – | – | –
3 | N.N.[Cl][Pt][Cl] [Cisplatin, Cis-diamminedichloroplatinum (II)] | – | 3.6 | – | 11.5 | – | – | sever pathological changes in the form of acute tubular necrosis, haemorrhage into many of the glomeruli and swelling of the capillaries | acute tubular necrosis | 14 | growth inhibition to control PBS group, but less than group treated with nanoparticle

From patent publication US12194014B2, “Platinum-based amphiphile prodrugs” (NANOMED HOLDINGS PTY LTD, priority 2018, dated 2025)
